In US20240279184A1, “HETEROAROMATIC ANALOGUES OF 3-BENZYLMENADIONE DERIVATIVES AND PROCESSES FOR THEIR PREPARATION” (CENTRE NATIONAL DE LA RECHERCHE SCIENTIFIQUE, priority 2021, published 2024):

What was measured:
[1] = tested on: Plasmodium falciparum NF54 strain; test: primary screening of antimalarial activity, Plasmodium falciparum NF54 strain; assay type: cell-based; conditions: for antimalarial activity compared with the regioisomer (potency and specificity): NF54 strain versus rat L6 myoblasts, MR00418 vs MR00397, MR00419 vs MR00407; for IC50: Plasmodium falciparum NF54 strain, first primary screening
[2] = tested on: rat L6 myoblast cell line; test: primary screening on the rat L6 myoblast cell line (specificity/cytotoxicity); assay type: cell-based; conditions: first primary screening

IC50 [1] [nM] | SMILES | antimalarial activity compared with the regioisomer (potency and specificity) [1] | IC50 [2] [µM]
6 | CC1=C(Cc2ccc(C(F)(F)F)nc2)C(=O)c2ccccc2C1=O [MRO0418, 2-methyl-3-((6-(trifluoromethyl)pyridin-3-yl)methyl) naphthalene-1,4-dione] | more potent and specific antimalarial activities than the regioisomers | 179
65 | CC1=C(Cc2cnc(C(F)(F)F)nc2)C(=O)c2ccccc2C1=O [MRO0419, 2-methyl-3-((2-(trifluoromethyl)pyrimidin-5-yl)methyl) naphthalene-1,4-dione] | more potent and specific antimalarial activities than the regioisomers | 48.3
